# Measured values taken from paper PMC7616177, “From structure to clinic: Design of a muscarinic M1 receptor agonist with the potential to treat Alzheimer’s disease” (Cell, 2021).
# Read-outs that look alike come from different tables or passages of the source.
# Legend:
# [1] = test system: rats; test: Safety pharmacology and toxicology clinical signs, rat; format: in vivo
# From the text: The rat and dog were appropriate species in which to conduct nonclinical safety evaluation and HTL9936. Male and female rates of the RccHan: WIST strain were obtained from Harlan, Bicester, UK. and the animals were approximately seven to eight weeks old at the start of dosing. Throughout the study the animals had access ad libitum to SQC Rat and Mouse Maintenance Diet No 1, Expanded, (Special Diets Services Ltd, Witham, UK). […] The temperature and relative humidity ranges were maintained in the specified ranges of 20 to 24°C and 45 to 65%, respectively.
# [2] = test system: non-human primates; test: Safety clinical signs, non-human primates; format: in vivo
# [3] = biological target: T1, M3-receptor (Homo sapiens, UniProt P20309); test: [3H]-NMS equilibrium radioligand binding, M3
# T1 construct: expressed in transfected cells
# Experimental: Non-specific binding (NSB) was determined in the presence of 1 μM atropine). Reactions were terminated by rapid filtration onto GF/B filter paper (Whatman, Maidstone, UK) and three washes with 3 mL ice-cold 0.9% NaCl using a Brandel harvester (M-24TI; Brandel, Fort Lauderdale, FL). Membrane bound radioactivity was determined by liquid scintillation (Ultima Gold; PerkinElmer) counting.
# Data was analyzed using PRISM (GraphPad). For saturation binding, non-specific and total binding data were analyzed to a one site binding model. DPM was converted to fmol/mg to compare across constructs. […] […] The Cheng Prusoff equation was used to estimate pKi ([Cheng and Prusoff, 1973]).
# [4] = test system: Wistar rats; test: Scopolamine-induced amnesia in passive avoidance; format: in vivo, rat
# Experimental: Male adult Wistar rats (Harlan, UK; approximately 11 weeks of age) were acclimatised to the experimental rooms for three days (study days 1-3) and handled for a further two days (study days 4 and 5) prior to the experiment.
# Donepezil (0.01 and 0.1 mg/kg) was administered via intraperitoneal injection (in saline) 60 min prior to training. Rats were trained in a single-trial, step-through, light-dark passive avoidance paradigm. The training apparatus consisted of a chamber 300 mm in length, 260 mm wide, and 270 mm in height. The front and top were transparent, allowing the experimenter to observe the behavior of the animal inside the apparatus. The chamber was divided into two compartments, separated by a central shutter that contained a small opening (50 mm wide and 75 mm high) set close to the front of the chamber. The smaller of the compartments measured 90 mm in width and contained a low-light (~200 lux) illumination source. The larger compartment measured 210 mm in width and was not illuminated. The floor of this dark compartment consisted of a grid of 16 horizontal stainless-steel bars that were 5 mm in diameter and spaced 12.5 mm apart. A current generator supplied 0.75 mA to the grid floor, which was scrambled once every 0.5 s across the 16 bars.
# Animals were placed facing the rear of the light compartment of the apparatus, immediately after which, spontaneous behavior was assessed. The timer was started once the animal completely turned to face the front of the chamber. Latency to enter the dark chamber was recorded, and having completely entered the dark compartment foot shock was administered to the animal, which immediately returned to the light compartment. Animals were then returned to their home cages. Between each training session, both compartments of the chamber were cleaned to remove any confounding olfactory cues. Vehicle (saline) or scopolamine (1 mg/kg) was administered to rats 6 hours after training. Recall of the inhibitory stimulus was evaluated 24 hour post-training on study day 7, by returning the animal into the light chamber and recording their latency to enter the dark chamber, a criterion time of 600 s was employed. Observation of the animals was made by overhead video camera linked to a monitor behind a screened area. Animal treatment was blinded to the observer.
# [5] = test system: CA1 neurons; test: In vivo electrophysiological recording of CA1 neurons in anaesthetised rats; set-up: species or system rat
# [6] = test system: dogs; test: Safety pharmacology and toxicology clinical signs, dog
# [7] = test system: dogs; test: GLP cardiovascular safety pharmacology telemetry in dogs
# [8] = Rat CNS distribution and estimated unbound brain exposure; format: in vivo
# [9] = Dog plasma and CSF exposure after subcutaneous dosing; format: in vivo; conditions: sc; for concentration at 4 h: CSF, aged beagle, 4 h post-dose, read-out: Measured Ccsf concentration
# [10] = biological target: T2, human M5-receptor (Homo sapiens, UniProt P08912); test: M5-receptor functional agonist assay; format: cell-based
# T2 construct: expressed in transfected cells; host or cells: not described
# T2 sequence (P08912 whole entry): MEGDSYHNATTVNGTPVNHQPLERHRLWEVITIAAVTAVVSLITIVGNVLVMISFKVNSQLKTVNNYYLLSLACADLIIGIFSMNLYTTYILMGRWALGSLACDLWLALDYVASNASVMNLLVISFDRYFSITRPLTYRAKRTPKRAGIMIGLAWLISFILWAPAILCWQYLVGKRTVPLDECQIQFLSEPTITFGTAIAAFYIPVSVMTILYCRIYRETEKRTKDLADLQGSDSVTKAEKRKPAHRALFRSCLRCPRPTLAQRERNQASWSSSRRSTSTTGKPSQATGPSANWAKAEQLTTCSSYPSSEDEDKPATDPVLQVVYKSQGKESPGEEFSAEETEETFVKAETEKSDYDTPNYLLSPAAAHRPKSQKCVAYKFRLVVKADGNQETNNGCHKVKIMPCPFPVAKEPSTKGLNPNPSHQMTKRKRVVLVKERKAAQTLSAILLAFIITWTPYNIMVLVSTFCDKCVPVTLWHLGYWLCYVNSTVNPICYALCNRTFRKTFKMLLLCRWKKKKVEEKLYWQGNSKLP
# T1 sequence (P20309 whole entry): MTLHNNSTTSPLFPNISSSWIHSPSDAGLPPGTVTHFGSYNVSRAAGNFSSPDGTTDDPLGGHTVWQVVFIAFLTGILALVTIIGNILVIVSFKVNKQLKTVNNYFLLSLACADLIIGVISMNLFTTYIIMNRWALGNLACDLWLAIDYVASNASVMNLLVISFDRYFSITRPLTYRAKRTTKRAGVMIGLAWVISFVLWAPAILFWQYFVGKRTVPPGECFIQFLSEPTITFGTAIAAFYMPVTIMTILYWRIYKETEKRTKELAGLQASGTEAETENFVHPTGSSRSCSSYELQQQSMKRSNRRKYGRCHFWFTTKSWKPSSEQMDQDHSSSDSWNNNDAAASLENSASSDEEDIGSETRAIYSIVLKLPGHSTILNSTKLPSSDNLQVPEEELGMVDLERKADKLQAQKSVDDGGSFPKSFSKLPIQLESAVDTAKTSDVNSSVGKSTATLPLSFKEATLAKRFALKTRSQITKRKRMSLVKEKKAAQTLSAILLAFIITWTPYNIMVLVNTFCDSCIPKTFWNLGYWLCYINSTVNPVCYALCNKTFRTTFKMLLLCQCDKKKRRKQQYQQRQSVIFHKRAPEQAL
smiles,measurement,setting,value
"CCOC(=O)N1CCC[C@H](N2CCC(C(=O)NC3(C)CCC3)CC2)CC1 [HTL9936, ethyl (S)-4-(4-((1-methylcyclobutyl)carbamoyl)piperidin-1-yl)azepane-1-carboxylate]","Cu,pl without cholinergic clinical signs",[1],"1,372 nM"
same,Plasma exposure without cholinergic clinical signs,[1],up to 732 ng/mL
same,"Cu,pl without cholinergic clinical signs",[2],991 nM
same,Plasma exposure without cholinergic clinical signs,[2],≤ 557 ng/mL
same,Binding to the M3-receptor,[3],no detectable binding
same,Maximal response compared with donepezil 0.1 mg/kg,[4]; rat passive avoidance,equivalent to that obtained using the clinically approved acetylcholinesterase inhibitor donepezil
same,Response alone,"[4]; rat passive avoidance, HTL9936 3 mg/kg",no response alone
same,Effect on scopolamine-induced amnesia,"[4]; rat, 3, 10 or 30 mg/kg p.o., scopolamine 1 mg/kg i.p.",reversed in a dose-dependent manner
same,In vivo firing rate of CA1 neurons vs vehicle,"[5]; 10 mg/kg i.v., rats",significant increase in the in vivo firing rate of CA1 neurons
same,In vivo neuronal firing rate,"[5]; adult rats, 1 and 10 mg/kg, reversed by scopolamine i.v.",concentration-dependent increase in neuronal firing rate
same,"Cu,pl above which clinical signs were observed",[6],283 nM
same,"Plasma exposure above which salivation, vomiting, lacrimation were observed",[6],exceeded 157 ng/mL
same,Time for hemodynamic changes to return to control levels after end of i.v. infusion,[7]; dogs,≤ 30 min
same,Blood pressure and heart rate,"[7]; telemetered dogs, i.v. infusion","dose-dependent profile of HTL9936 effects on blood pressure, but not heart rate"
same,Distribution into the CNS,[8]; 1 mg/kg intravenous and 10 mg/kg oral,significant distribution into the CNS
same,"Estimated unbound drug in the brain Cu,br",[8]; 3 mg/kg p.o.,79 nM
same,"Estimated unbound drug in the brain Cu,br",[8]; 10 mg/kg p.o.,262 nM
same,"Estimated unbound drug in the brain Cu,br",[8]; 30 mg/kg p.o.,786 nM
same,concentration at 4 h,[9]; 0.3 mg/kg s.c.,13 nM
same,concentration at 4 h,[9]; 1 mg/kg s.c.,48 nM
same,concentration at 4 h,[9]; 2 mg/kg s.c.,128 nM
same,Cmax,"[9]; plasma, aged beagle DNMP study, 0.3 mg/kg subcutaneous, read-out: Cmax plasma exposure at minimal effective dose",58 ng/mL
same,M5-receptor agonism,[10],no detectable agonism
